US20020150975A1 (priority 2000, published 2002)

Each compound was assayed on SCLC cells.
Format: cell-based, human
With alpha-cobratoxin the “effect on proliferation / rate of growth of SCLC cells” value (“effect on proliferation / rate” for short) was “slow down or suppress proliferation”.
In the case of `CN1CCCC1c1cccnc1` (stereo not drawn) [nicotine], the “effect on proliferation / rate” value is reported as “increase the rate of growth”.
For alpha-bungarotoxin, the “effect on proliferation / rate” value was “slow down or suppress proliferation”.
